Assay results: US20120083464A1, “NEUROPROTECTIVE PROPERTIES OF 5'-METHYLTHIOADENOSINE” (priority 2009, published 2012)
Entries after “also recorded” stand apart in the source; their conditions may differ.

What was measured:
[1] = tested on: mixed cultures of neurons and astrocytes from the cerebral cortex; assay: Cell toxicity and viability assays (calcein-AM, LDH) in neuron-astrocyte co-cultures; type: cell-based; conditions: MTA 10 μM-1 mM for 24 hours
Description: Primary neuron cultures were obtained from the cortical lobes of E18 Sprague-Dawley rat embryos according to previously described procedures (Cheung et al., 1998, Neuropharmacology 37:1419-1429). The cells were resuspended in B27 Neurobasal medium plus 10% FBS and then seeded in 24-well plates at 1-2×10^5 cells per well onto a monolayer of astrocytes which were previously prepared as described earlier (Vallejo-Illarramendi et al., 2005, Glia 50:276-279). One day later, the medium was replaced by B27-supplemented Neurobasal medium and 10% fetal bovine serum, and maintained at 37° C. and 5% CO2. Cultures were used 8-9 days after plating. Cultured neurons and astrocytes were identified using antibodies to microtubule associated protein-2 and glial fibrillary acidic protein, respectively.
Cell death and cell viability in neuron-astrocyte co-cultures was assayed after 24 h of exposure to MTA (10 μM to 1 mM) using lactate dehydrogenase and calcein-AM assays respectively followed by fluorimetry measurements (Synergy-HT). The results are expressed as percentage of viable cells or LDH release versus controls, as the mean±SEM of at least four independent experiments performed in triplicate. […]

CA1 hippocampal neurons = assay: Global ischemia (four-vessel occlusion, 10 min), Fluoro jade staining; type: in vivo, Wistar rats; conditions: P<0.01
Experimental: Before surgical procedures, animals were fasted overnight. The rats were subjected to middle cerebral artery occlusion (MCAO) for 90 min using the intraluminal filament model as described previously (Rickhag et al, 2006; J Neurochem 96:14-29). Blood flow was monitored transcraneally with a doppler laser (Perimed). All physiologic parameters of animals included in the study were within normal ranges and included animals showing typical ischemia-induced behavioral deficits, rotational asymmetry, and dysfunctional limb placement. Rectal and body temperature was maintained at 37° C. during surgery and ischemia with a heating pad. Transient forebrain ischemia was induced by occlusion of the vertebral and common carotid arteries for 10 min according to the method described by Pulsinelli and Brierley (1979; Stroke 10, 267-272.). Criteria for forebrain ischemia were bilateral loss of the righting reflex, paw extension and mydriasis. […]
The animals were treated with MTA (30 or 100 mg/kg i.p.), twice daily reconstituted in Tris 300 mM, or placebo (Tris 300 mM) starting at 30 min of the onset of ischemia. […]

[2] = tested on: oligodendrocytes derived from the optic nerve; assay: Oligodendrocyte excitotoxicity with AMPA; type: cell-based, Sprague Dawley rats; conditions: MTA 100-300 μM
Experimental: Primary cultures of oligodendrocytes derived from optic nerves of 12-d-old Sprague Dawley rats were obtained as described previously (Barres et al., 1992). Cells were seeded into 24-well plates bearing 12-mm-diameter coverslips coated with poly-D-lysine (10 μg/ml) at a density of 5×10^3 cells per well. Cells were maintained at 37° C. and 5% CO2 in a chemically defined medium (Barres et al., 1992, Cell 70:31-46). After 2-4 d in vitro, cultures were composed of at least 98% O4/galactocerebroside-positive (O4/Ga1C_) cells; the majority of the remaining cells were stained with antibodies to glial fibrillary acidic protein (GFAP). No A2B5+ or microglial cells were detected in these cultures (Alberdi et al., 2002, Neurobiol Dis 9:234-243).
Cell toxicity and viability assays were performed as described previously (Sánchez-Gómez and Matute, 1999, Neurobiol Dis 6:475-485). For evaluating the MTA toxicity, cells at 2-4 d in culture were exposed for 24 hours to that drug and cell viability assessed using calcein-AM (Invitrogen). […] Twenty-four hours after drug application, cell viability was assessed using calcein-AM (Invitrogen). The total number of surviving cells on each coverslip emitting calcein fluorescence was counted, and results were expressed as percentage of cell death versus control. Results were expressed as the mean±SEM of at least three independent experiments performed in duplicate. […]

RN22 cells = assay: Copper sulphate stress in RN22 cells, ROS levels; type: cell-based, rat; conditions: copper sulphate 150 μM, different time periods
Experimental: RN22 cells were maintained at 37° C. in DMEM medium supplemented with 10% of fetal bovine serum and penicillin/streptomycine. The assays against stress with copper sulphate were conducted using 24-well plates in DMEM medium without serum. After allowing cell adherence for three days, NGF (100 ng/ml) or MTA was added to different concentrations half an hour before the copper sulphate (150 μM). After twenty-four hours, cell viability was quantified by MTT assay and ROS production was quantified by fluorescence. Assays against stress with hydrogen peroxide were conducted in the same way as the foregoing, using 100 μM hydrogen peroxide as a stress-producing agent.
We determined the quantity of ROS produced by the cells after stress with and without treatment. 2′,7′- dichlorodihydrofluorescein (DCFH) is generally used to measure oxidative stress in cells. The cells were incubated with DCFH-DA (10 μM) at 37° C. for thirty minutes. After incubation, the cells were washed twice with PBS and lysed by adding 10 mM Tris-HCL buffer containing 0.5% of Tween 20. The homogenates were then centrifuged at 10,000 g for ten minutes to separate the cell residue and […] fluorescence in the supernatant was measured using a fluorometer (excitation wavelength 492-495 nm, emission wavelength 517-527 nm) (Invitrogen).

SMILES: CSC[C@H]1O[C@@H](n2cnc3c(N)ncnc32)[C@H](O)[C@@H]1O [MTA, 5′-methylthioadenosine]
- astrocyte resistance and viability to MTA [1]: resistant and viable
- toxicity (cell viability by calcein fluorescence; cell death by LDH release) ([1]; neurons in co-culture): very low; also recorded: not toxic
- CA1 hippocampal neuron cell death (Fluoro jade fluorescence) (CA1 hippocampal neurons; 10 min global ischemia, MTA i.p. twice daily from 30 min post-ischemia, 7 days): protects
- lower levels of dying cells in the CA1 region versus vehicle (Fluoro jade) (CA1 hippocampal neurons; MTA 30 mg/kg i.p. twice daily, 7 days of reperfusion): about 50%
- protection of oligodendrocytes from excitotoxic insult ([2]; AMPA 10 μM): robust protective activity; also recorded: protects
- protection of oligodendrocytes from excitotoxic insult ([2]; AMPA 100 μM (necrotic death)): no protection; also recorded: does not protect
- ROS production under copper sulphate stress (RN22 cells): reduce ROS production
